Results on nine compounds are retold here after US20250353864A1, “INDAZOLE CONTAINING MACROCYCLES AND THEIR USE” (BLOSSOMHILL THERAPEUTICS, INC., priority 2022, published 2025).

Type in all cases: biochemical
Assay [1] concerns the target EGFR L858R/T790M/C797S mutant (Homo sapiens (Human), UniProt P00533, C797S/L858R/T790M). The assay is described as follows: HotSpot radiometric kinase assay, EGFR L858R/T790M/C797S mutant. The settings on record: 10 μM ATP. The procedure, abridged:
(§1)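 Radiometric filter-binding read-out: incorporated 33P was retained on P81 ion-exchange paper after washing away unbound phosphate. Reactions ran 120 min at room temperature with 10 μM final ATP, following ~20 min compound preincubation in Hepes pH 7.5 buffer containing 1% DMSO. IC50 from fitted curves.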

The target of another assay is EGFR Δ746-750 mutant (Homo sapiens (Human), UniProt P00533, DEL746-750). The assay is described as follows: HotSpot radiometric kinase assay, EGFR Δ746-750 mutant. The settings on record: 10 μM ATP. The procedure, abridged: as §1
Sequence of EGFR Δ746-750 mutant (P00533 other isoform, or with tags, fused parts or gaps del 1-668/del 746-750 limits assumed): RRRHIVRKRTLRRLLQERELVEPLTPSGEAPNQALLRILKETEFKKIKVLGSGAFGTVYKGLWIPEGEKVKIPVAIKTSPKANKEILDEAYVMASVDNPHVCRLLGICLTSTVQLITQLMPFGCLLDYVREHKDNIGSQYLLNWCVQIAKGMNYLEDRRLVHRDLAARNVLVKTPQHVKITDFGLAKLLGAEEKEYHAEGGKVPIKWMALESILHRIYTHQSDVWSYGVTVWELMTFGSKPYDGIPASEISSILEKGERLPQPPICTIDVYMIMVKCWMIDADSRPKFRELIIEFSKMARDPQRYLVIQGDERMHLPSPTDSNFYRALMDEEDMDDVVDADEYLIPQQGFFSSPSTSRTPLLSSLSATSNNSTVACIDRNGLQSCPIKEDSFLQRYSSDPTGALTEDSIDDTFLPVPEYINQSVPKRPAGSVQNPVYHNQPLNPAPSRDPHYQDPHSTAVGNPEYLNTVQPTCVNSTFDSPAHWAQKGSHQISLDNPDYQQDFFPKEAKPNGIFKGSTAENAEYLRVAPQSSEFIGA
In the next assay the target is CLK3 (Homo sapiens (Human), UniProt P49761). The assay is described as follows: Inhibition of CLK3 kinase activity evaluated at Nanosyn (ADP-Glo). The settings on record: ADP-Glo luminescence. Here is the method: (§2) Inhibition of CLK, CLK2, CLK3 and CLK4 Kinase Activity Evaluated at Nanosyn
Sequence of CLK3 (P49761 whole entry): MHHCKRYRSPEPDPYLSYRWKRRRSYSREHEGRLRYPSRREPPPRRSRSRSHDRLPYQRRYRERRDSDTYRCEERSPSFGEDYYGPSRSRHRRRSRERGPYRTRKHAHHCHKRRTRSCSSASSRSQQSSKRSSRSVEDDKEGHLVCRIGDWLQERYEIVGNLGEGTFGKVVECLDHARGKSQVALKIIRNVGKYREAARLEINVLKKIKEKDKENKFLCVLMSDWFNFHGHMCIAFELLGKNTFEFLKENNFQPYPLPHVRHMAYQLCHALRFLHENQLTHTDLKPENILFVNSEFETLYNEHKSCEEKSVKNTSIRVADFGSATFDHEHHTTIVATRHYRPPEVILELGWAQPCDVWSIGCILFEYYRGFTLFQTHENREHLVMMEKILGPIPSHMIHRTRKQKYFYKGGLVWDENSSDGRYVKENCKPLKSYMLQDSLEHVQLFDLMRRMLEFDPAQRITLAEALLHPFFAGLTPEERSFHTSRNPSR
(§3) Kinase protein and substrate were pre-diluted in the HEPES assay buffer (100 mM HEPES, pH 7.5, 0.01% Triton X-100, 0.1% BSA, 5 mM MgCl2, […] DTT, 10 Sodium Orthovanadate, […] Beta-Glycerophosphate) dispensed into 384 well plate (5 μL per well). Control samples (0%-inhibition in the absence of inhibitor, DMSO only) and 100%-inhibition (in the absence of enzyme) were assembled in replicates of six and were used to calculate %-inhibition in the presence of compounds. Test compounds were added to the protein samples by acoustic dispensing (Labcyte Echo550). Concentration of DMSO was equalized to 1% in all samples. Reactions were initiated by addition of ATP by acoustic dispensing (Labcyte Echo550) and incubated according to assay specific incubation time. After incubation. 5 μL of Promega ADP-Glo reagent was added and incubated for 40 minutes. After 40 minutes, 10 uL of Promega kinase detection reagent was added. After 10 min of incubation with Kinase detection reagent, the luminescence was read on microplate reader (Biotek Synergy).

In a further assay the target is EGFR WT (Homo sapiens (Human), UniProt P00533). Put plainly: HotSpot radiometric kinase assay (Reaction Biology), EGFR WT. The following applies: 10 μM ATP. An outline of the steps:
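Kinase, substrate and cofactors are mixed in 20 mM Hepes pH 7.5 with 10 mM MgCl2, 1 mM EGTA, 2 mM DTT and 1% DMSO. Compound is added, and about 20 min later ATP/33P-ATP (10 μM final) starts a 120-min room-temperature reaction, which is then spotted onto P81 paper.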

The target in a further assay is CLK1 (Homo sapiens (Human), UniProt P49759). The assay is described as follows: Inhibition of CLK1 kinase activity evaluated at Nanosyn (ADP-Glo). The following applies: ADP-Glo luminescence. Here is the method:
as §2, §3

The target of a further assay is EGFR L858R mutant (Homo sapiens (Human), UniProt P00533, L858R). The assay is described as follows: HotSpot radiometric kinase assay, EGFR L858R mutant. The following applies: 10 μM ATP. An outline of the steps: as §1
Sequence of EGFR L858R mutant (P00533 25-1210 L858R): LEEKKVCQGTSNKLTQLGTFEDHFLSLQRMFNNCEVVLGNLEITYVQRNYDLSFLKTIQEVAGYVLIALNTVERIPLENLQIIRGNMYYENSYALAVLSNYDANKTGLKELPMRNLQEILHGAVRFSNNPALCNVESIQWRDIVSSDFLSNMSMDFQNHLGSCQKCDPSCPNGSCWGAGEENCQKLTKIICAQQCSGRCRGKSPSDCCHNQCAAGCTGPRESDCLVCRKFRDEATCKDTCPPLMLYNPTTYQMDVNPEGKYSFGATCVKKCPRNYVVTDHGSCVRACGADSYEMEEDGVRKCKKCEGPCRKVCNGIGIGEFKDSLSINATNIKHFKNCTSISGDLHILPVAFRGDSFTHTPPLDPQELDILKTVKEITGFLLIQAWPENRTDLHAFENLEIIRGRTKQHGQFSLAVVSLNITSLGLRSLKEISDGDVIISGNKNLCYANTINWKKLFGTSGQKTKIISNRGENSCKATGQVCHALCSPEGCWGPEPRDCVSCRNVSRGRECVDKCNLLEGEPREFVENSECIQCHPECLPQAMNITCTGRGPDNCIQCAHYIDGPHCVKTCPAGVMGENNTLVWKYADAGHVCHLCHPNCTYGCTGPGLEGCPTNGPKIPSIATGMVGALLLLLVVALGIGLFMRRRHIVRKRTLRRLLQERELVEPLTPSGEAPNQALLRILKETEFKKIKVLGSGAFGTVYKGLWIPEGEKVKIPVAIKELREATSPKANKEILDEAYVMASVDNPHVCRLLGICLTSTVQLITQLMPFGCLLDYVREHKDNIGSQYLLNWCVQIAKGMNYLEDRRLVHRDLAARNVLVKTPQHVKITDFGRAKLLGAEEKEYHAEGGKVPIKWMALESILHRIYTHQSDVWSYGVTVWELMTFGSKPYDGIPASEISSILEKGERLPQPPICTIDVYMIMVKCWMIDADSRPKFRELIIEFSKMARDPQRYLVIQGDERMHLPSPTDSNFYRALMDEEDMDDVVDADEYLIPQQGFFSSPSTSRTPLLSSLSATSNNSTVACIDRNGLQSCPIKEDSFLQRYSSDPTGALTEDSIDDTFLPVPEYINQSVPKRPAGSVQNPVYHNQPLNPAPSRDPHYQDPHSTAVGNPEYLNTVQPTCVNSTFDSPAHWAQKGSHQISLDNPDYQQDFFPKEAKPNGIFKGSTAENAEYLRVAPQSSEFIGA
The target in a further assay is EGFR L858R/T790M mutant (Homo sapiens (Human), UniProt P00533, L858R/T790M). The assay is described as follows: HotSpot radiometric kinase assay, EGFR L858R/T790M mutant. The settings on record: 10 μM ATP. The procedure, abridged:
as §1

A further assay concerns the target CLK4 (Homo sapiens (Human), UniProt Q9HAZ1). The assay is described as follows: Inhibition of CLK4 kinase activity evaluated at Nanosyn (ADP-Glo). The following applies: ADP-Glo luminescence. On the procedure: as §2, §3
(In general: In ADP-Glo the light output rises with the ADP produced.)

Another assay deals with CLK2 (Homo sapiens (Human), UniProt P49760). The assay is described as follows: Inhibition of CLK2 kinase activity evaluated at Nanosyn (ADP-Glo). The following applies: ADP-Glo luminescence. On the procedure: as §2, §3
Sequence of CLK2 (P49760 whole entry): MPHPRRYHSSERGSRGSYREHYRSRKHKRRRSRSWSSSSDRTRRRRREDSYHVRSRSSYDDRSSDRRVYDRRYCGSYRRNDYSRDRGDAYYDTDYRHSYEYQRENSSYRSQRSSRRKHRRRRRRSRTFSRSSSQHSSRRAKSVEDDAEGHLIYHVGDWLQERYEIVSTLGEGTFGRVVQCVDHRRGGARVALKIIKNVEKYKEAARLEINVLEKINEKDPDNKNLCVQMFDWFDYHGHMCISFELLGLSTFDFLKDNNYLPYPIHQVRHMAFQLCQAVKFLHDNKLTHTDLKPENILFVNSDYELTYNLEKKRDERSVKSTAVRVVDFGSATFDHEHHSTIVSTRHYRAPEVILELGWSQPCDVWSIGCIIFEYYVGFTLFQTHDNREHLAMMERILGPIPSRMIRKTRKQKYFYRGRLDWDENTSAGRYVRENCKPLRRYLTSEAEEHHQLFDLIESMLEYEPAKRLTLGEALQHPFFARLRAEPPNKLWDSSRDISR
Another assay addresses EGFR (D770_N771insNPG) (Homo sapiens (Human), UniProt P00533, INS770NPG). The assay is described as follows: HotSpot radiometric kinase assay, EGFR (D770_N771insNPG). The following applies: 10 μM ATP, read-out: EGFR (Δ770_N771insNPG) IC50. An outline of the steps:
as §1

For assay [2], the target named is EGFR Δ746-750/C797S mutant (Homo sapiens (Human), UniProt P00533, C797S/DEL746-750). Put plainly: HotSpot radiometric kinase assay, EGFR Δ746-750/C797S mutant. The following applies: 10 μM ATP. The procedure, abridged: as §1

Sequence of EGFR L858R/T790M mutant (P00533 25-1210 T790M/L858R): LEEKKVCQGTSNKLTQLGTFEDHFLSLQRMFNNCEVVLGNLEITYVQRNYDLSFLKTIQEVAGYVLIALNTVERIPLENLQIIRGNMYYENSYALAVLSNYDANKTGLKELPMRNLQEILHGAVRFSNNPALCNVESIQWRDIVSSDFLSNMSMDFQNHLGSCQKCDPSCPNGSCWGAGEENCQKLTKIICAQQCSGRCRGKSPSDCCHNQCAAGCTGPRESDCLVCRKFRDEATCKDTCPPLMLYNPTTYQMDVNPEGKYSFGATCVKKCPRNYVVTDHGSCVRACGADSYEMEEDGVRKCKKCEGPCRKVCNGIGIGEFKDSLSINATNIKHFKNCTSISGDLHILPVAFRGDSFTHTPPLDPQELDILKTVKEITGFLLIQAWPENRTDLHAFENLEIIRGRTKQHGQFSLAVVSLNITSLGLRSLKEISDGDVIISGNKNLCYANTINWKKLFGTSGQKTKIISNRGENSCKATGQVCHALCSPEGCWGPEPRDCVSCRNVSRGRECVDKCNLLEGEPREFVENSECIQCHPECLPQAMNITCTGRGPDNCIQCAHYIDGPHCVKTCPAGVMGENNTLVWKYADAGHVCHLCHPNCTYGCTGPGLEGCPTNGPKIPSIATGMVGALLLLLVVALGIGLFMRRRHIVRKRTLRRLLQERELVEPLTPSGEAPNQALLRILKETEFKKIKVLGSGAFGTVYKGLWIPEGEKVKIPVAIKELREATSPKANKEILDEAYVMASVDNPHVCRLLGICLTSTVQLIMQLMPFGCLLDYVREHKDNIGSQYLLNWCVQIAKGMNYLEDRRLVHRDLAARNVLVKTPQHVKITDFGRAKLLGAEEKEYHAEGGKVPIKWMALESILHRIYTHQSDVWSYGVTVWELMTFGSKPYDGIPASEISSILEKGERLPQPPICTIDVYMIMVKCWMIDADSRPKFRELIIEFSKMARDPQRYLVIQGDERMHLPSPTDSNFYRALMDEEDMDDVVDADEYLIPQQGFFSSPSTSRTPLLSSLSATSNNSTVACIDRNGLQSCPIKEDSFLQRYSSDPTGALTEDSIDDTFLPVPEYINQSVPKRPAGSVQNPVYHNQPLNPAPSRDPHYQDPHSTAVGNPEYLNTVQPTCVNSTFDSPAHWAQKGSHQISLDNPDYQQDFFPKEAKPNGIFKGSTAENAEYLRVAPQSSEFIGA
Sequence of CLK1 (P49759 whole entry): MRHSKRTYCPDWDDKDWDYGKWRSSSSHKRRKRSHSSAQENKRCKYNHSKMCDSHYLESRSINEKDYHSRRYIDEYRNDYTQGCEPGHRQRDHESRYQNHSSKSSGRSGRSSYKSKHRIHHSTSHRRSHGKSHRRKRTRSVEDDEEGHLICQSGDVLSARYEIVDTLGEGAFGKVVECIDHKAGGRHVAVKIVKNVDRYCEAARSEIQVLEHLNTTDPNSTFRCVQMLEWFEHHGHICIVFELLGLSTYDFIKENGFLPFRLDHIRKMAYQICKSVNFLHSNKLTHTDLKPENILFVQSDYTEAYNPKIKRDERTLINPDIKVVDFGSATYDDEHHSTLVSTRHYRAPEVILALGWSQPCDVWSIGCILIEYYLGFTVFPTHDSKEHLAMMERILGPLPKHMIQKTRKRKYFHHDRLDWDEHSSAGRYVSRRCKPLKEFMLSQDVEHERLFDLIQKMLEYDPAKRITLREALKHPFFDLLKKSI
Sequence of EGFR (D770_N771insNPG) (P00533 other isoform, or with tags, fused parts or gaps del 1-668/ins NPG behind 770 limits assumed): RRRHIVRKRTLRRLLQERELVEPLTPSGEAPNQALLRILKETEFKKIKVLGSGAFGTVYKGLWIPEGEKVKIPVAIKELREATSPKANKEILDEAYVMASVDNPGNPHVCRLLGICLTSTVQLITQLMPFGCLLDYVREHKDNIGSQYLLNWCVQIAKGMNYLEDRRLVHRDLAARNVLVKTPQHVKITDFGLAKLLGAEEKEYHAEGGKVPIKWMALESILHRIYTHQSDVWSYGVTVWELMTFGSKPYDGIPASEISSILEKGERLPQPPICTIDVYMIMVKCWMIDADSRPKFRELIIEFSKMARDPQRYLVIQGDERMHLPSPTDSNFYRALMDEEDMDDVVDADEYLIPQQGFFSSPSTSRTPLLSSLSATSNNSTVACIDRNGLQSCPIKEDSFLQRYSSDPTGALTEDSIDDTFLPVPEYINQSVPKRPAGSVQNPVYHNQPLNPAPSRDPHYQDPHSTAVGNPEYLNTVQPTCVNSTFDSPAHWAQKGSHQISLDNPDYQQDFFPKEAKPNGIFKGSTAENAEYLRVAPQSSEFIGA

For `CN1CCC(c2ccc3c(c2)O[C@@H]2CCN(CCOc4c(cnn4C)-c4ccc5[nH]nc(c5c4)/C=C/3)C2=O)CC1` [Example 112, (10R,16E)-3-methyl-13-(1-methylpiperidin-4-yl)-3,5,6,9,10,19-hexahydro-8H-20,22-etheno-7,10-methanodipyrazolo[3,4-i:4′,3′-m][1,8,5]benzodioxazacyclooctadecin-25-one], the IC50 in assay [1] came out at 0.98 nM; against EGFR Δ746-750 mutant, 0.61 nM; at CLK3, 0.19 nM; on EGFR WT it was 8.28 nM; on CLK1, 0.17 nM; against EGFR L858R mutant it was 1.31 nM. Besides, the half-maximal inhibitory concentration (IC50) against EGFR L858R/T790M mutant stood at 0.21 nM; at CLK4, 0.5 nM; at CLK2 it was 0.04 nM; on EGFR (D770_N771insNPG), 1.12 nM; in assay [2], 2.75 nM.
Consider `Cc1nn(CCO)c2c1/C=C/c1n[nH]c3ccc(cc13)-c1cnn(C)c1O[C@@H](C)CN(C(C)C)C2` [Example 114, 2-[(10S,17E)-8,10,16-trimethyl-12-(propan-2-yl)-2,8,10,11,12,13-hexahydro-14H-3,5-ethenotripyrazolo[3,4-f:3′,4′-j:4″,3″- n][1,4]oxazacyclopentadecin-14-yl]ethan-1-ol], for which the IC50 in [1] stood at 0.98 nM; against EGFR Δ746-750 mutant, 0.17 nM; at CLK3 it was 20.9 nM; against EGFR WT, 0.38 nM; on CLK1 it was 0.23 nM; against EGFR L858R mutant it was 0.1 nM. Besides, the IC50 on EGFR L858R/T790M mutant was determined as 0.11 nM; at CLK4, 0.46 nM; at CLK2, 0.12 nM; at EGFR (D770_N771insNPG), 0.91 nM; in assay [2], 0.92 nM.
Consider `Cc1nn(CCO)c2c1/C=C/c1n[nH]c3cc(F)c(cc13)-c1cnn(C)c1O[C@@H](C)CN(C)C2` [Example 116, 2-[(10S,17E)-19-fluoro-8,10,12,16-tetramethyl-2,8,10,11,12,13-hexahydro-14H-3,5-ethenotripyrazolo[3,4-f:3′,4′-j:4″,3″-n][1,4]oxazacyclopentadecin-14-yl]ethan-1-ol], for which the 50% inhibitory concentration (IC50) in assay [1] was determined as 2.71 nM; on EGFR Δ746-750 mutant, 1.06 nM; on CLK3, 10.9 nM; at EGFR WT, 3.98 nM; on CLK1 it was 0.11 nM; at EGFR L858R mutant, 0.58 nM. Further, the IC50 at EGFR L858R/T790M mutant is 0.38 nM; on CLK4, 0.4 nM; on CLK2, 0.04 nM; on EGFR (D770_N771insNPG) it was 18.5 nM; in [2] it was 2.85 nM.
As for `Cc1nn(C)c2c1/C=C/c1n[nH]c3ccc(cc13)-c1cnn(C)c1O[C@@H]1CCCN(C2)C1` [Example 122, (10R,19E)-8,16,18-trimethyl-2,8,10,11,12,13,15,16-octahydro-3,5-etheno-10,14-methanotripyrazolo[3,4-h:3′,4′-l:4″,3″-p][1,6]oxazacycloheptadecine], the IC50 in [1] came out at 2.09 nM; against EGFR Δ746-750 mutant it was 7.45 nM; at CLK3, 21.2 nM; on EGFR WT it was 94.2 nM; at CLK1 it was 0.27 nM; at EGFR L858R mutant it was 11.9 nM. The IC50 on EGFR L858R/T790M mutant was 1.46 nM; on CLK4, 0.6 nM; at CLK2, 0.15 nM; on EGFR (D770_N771insNPG) it was 58 nM; in assay [2], 6.79 nM.
On to `Cc1nn(C[C@H](C)O)c2c1/C=C/c1n[nH]c3ccc(cc13)-c1cnn(C)c1O[C@@H](C)CN(C)C2` [Example 123, (2S)-1-[(10S,17E)-8,10,12,16-tetramethyl-2,8,10,11,12,13-hexahydro-14H-3,5-ethenotripyrazolo[3,4f:3′,4′-j:4″,3″-n][1,4]oxazacyclopentadecin-14-yl]propan-2-ol], for which the IC50 in [1] amounted to 0.75 nM; against EGFR Δ746-750 mutant, 1.3 nM; at CLK3, 171 nM; against EGFR WT, 11.4 nM; on CLK1, 0.17 nM; on EGFR L858R mutant, 1.5 nM. Moreover, the IC50 against EGFR L858R/T790M mutant was determined as 0.33 nM; on CLK4, 0.45 nM; on CLK2, 0.1 nM; at EGFR (D770_N771insNPG) it was 10.1 nM; in [2], 0.8 nM.
As to `Cc1c2c(nn1C[C@H](C)O)CN(C)C[C@H](C)Oc1c(cnn1C)-c1ccc3[nH]nc(c3c1)/C=C/2` [Example 124, (2S)-1-[(10S,17E)-8,10,12,16-tetramethyl-2,8,10,11,12,13-hexahydro-15H-3,5-ethenotripyrazolo[3,4-f:3′,4′-j:4″,3″-n][1,4]oxazacyclopentadecin-15-yl]propan-2-ol], the IC50 in assay [1] worked out at 2.32 nM; at EGFR Δ746-750 mutant, 18.3 nM; on CLK3, 186 nM; against EGFR WT, 168 nM; on CLK1 it was 0.15 nM; on EGFR L858R mutant, 18.3 nM. Further, the IC50 came out at 3.32 nM against EGFR L858R/T790M mutant; 0.37 nM at CLK4; 0.29 nM at CLK2; 140 nM at EGFR (D770_N771insNPG); 13.9 nM in [2].
On to `Cc1nn(CCO)c2c1/C=C/c1n[nH]c3cc(Cl)c(cc13)-c1cnn(C)c1O[C@@H](C)CN(C)C2` [Example 125, 2-[(10S,17E)-19-chloro-8,10,12,16-tetramethyl-2,8,10,11,12,13-hexahydro-14H-3,5-ethenotripyrazolo[3,4-f:3′,4′-j:4″,3″-n][1,4]oxazacyclopentadecin-14-yl]ethan-1-ol], for which the IC50 stood at 7.49 nM in assay [1]; 20.6 nM against EGFR Δ746-750 mutant; 1000 nM at CLK3; 138 nM against EGFR WT; 3.44 nM on CLK1; 11.9 nM at EGFR L858R mutant. The IC50 at EGFR L858R/T790M mutant amounted to 43.6 nM; at CLK4, 4.31 nM; on CLK2 it was 2.81 nM; at EGFR (D770_N771insNPG), 175 nM; in assay [2], 4.99 nM.
Regarding `Cc1c2c(nn1C)/C=C/c1n[nH]c3ccc(cc13)-c1cnn(C)c1O[C@@H](C)CN(C)C2` [Example 126, (10S,17E)-8,10,12,14,15-pentamethyl-2,10,11,12,13,15-hexahydro-8H-3,5-ethenotripyrazolo[4,3-f:3′,4′-j:4″,3″-n][1,4]oxazacyclopentadecine], the IC50 in [1] is 2.8 nM; at EGFR Δ746-750 mutant it was 16.1 nM; on CLK3, 188 nM; against EGFR WT it was 164 nM; at CLK1, 0.32 nM; at EGFR L858R mutant, 18.6 nM. Further, the IC50 against EGFR L858R/T790M mutant was 2.07 nM; at CLK4 it was 0.49 nM; at CLK2, 0.12 nM; at EGFR (D770_N771insNPG) it was 133 nM; in assay [2], 19.8 nM.
For `Cn1ncc2c1OCCN1CC[C@@H](Oc3ccc(F)cc3/C=C/c3n[nH]c4ccc-2cc34)C1=O` [Example 132, (10R,16E)-14-fluoro-3-methyl-3,5,6,9,10,19-hexahydro-8H-20,22-etheno-7,10-methanodipyrazolo[3,4-i:4′,3′-m][1,8,5]benzodioxazacyclooctadecin-25-one], the IC50 worked out at 35.3 nM in assay [1]; 39.4 nM against EGFR Δ746-750 mutant; 0.28 nM at CLK3; 721 nM against EGFR WT; 0.19 nM on CLK1; 157 nM against EGFR L858R mutant. Besides, the IC50 came out at 20.1 nM against EGFR L858R/T790M mutant; 0.3 nM on CLK4; 0.02 nM at CLK2; 284 nM at EGFR (D770_N771insNPG); 67 nM in assay [2].

As a reminder, the IC50 is the concentration at which inhibition is half-maximal.
